Values of other authors as cited in patent US20240398940A1, “NOVEL LIPID NANOPARTICLES FOR DELIVERY OF NUCLEIC ACIDS” (CureVac SE, priority 2021, published 2024).
Like-named read-outs stand apart in the source and are kept apart here.

Tests used:
[1] = in vivo

Compound	accumulation in tissue [1]	excretion [1]	charge (pH 4)	charge (pH 7)
poly(2-methyl-2-oxazoline) [PMOZ]	no significant accumulation in tissue	rapidly excreted by the kidney	–	–
Cc1c(C)c2c(c(C)c1OC(=O)CCC(=O)OCCC1CCN(CCSSCCN3CCC(CCOC(=O)CCC(=O)Oc4c(C)c(C)c5c(c4C)CCC(C)(CCCC(C)CCCC(C)CCCC(C)C)O5)CC3)CC1)CCC(C)(CCCC(C)CCCC(C)CCCC(C)C)O2 (stereo not shown) [C23, COATSOME ® SS-EC]	–	–	positive charge	neutral charge
